From ChEMBL document CHEMBL1147193, “New 5-substituted thiazolo[3,2-b][1,2,4]triazol-6-ones: synthesis and anticancer evaluation” (2007)

Assays:
Type in all cases: functional
[1] = system: OVCAR-3; assay: Growth inhibition of human OVCAR-3 cells after 48 hrs by SRB protein assay; settings: OVCAR-3, 48 h
[2] = system: OVCAR-5; assay: Growth inhibition of human OVCAR5 cells after 48 hrs by SRB protein assay; settings: OVCAR-5, 48 h
[3] = system: OVCAR-8; assay: Growth inhibition of human OVCAR8 cells after 48 hrs by SRB protein assay; settings: OVCAR-8, 48 h
[4] = system: SK-OV-3; assay: Growth inhibition of human SK-OV-3 cells after 48 hrs by SRB protein assay; settings: SK-OV-3, 48 h
[5] = system: ACHN; assay: Growth inhibition of human ACHN cells after 48 hrs by SRB protein assay
[6] = system: CAKI-1; assay: Growth inhibition of human CAKI1 cells after 48 hrs by SRB protein assay; settings: CAKI-1, 48 h
[7] = system: CCRF-CEM; assay: Growth inhibition of human CCRF-CEM cells after 48 hrs by SRB protein assay
[8] = system: BT-549; assay: Growth inhibition of human BT549 cells after 48 hrs by SRB protein assay; settings: BT-549, 48 h
[9] = system: Hs-578T; assay: Growth inhibition of human HS578T cells after 48 hrs by SRB protein assay
[10] = system: RPMI-8226; assay: Growth inhibition of human RPMI8226 cells after 48 hrs by SRB protein assay; settings: RPMI-8226, 48 h
[11] = system: NCI-H460; assay: Anticancer activity against human NCI-H460 cells assessed as growth of cells at 100 uM relative to untreated cells
[12] = system: SF-268; assay: Anticancer activity against human SF268 cells assessed as growth of cells at 100 uM relative to untreated cells
[13] = system: MCF7; assay: Anticancer activity against human MCF7 cells assessed as growth of cells at 100 uM relative to untreated cells
[14] = system: K562; assay: Growth inhibition of human K562 cells after 48 hrs by SRB protein assay; settings: K562, 48 h
[15] = system: MOLT-4; assay: Growth inhibition of human MOLT4 cells after 48 hrs by SRB protein assay; settings: MOLT-4, 48 h
[16] = system: EKVX; assay: Growth inhibition of human EKVX cells after 48 hrs by SRB protein assay
[17] = system: HOP-62; assay: Growth inhibition of human HOP62 cells after 48 hrs by SRB protein assay; settings: HOP-62, 48 h
[18] = system: HOP-92; assay: Growth inhibition of human HOP92 cells after 48 hrs by SRB protein assay; settings: HOP-92, 48 h
[19] = system: NCI-H226; assay: Growth inhibition of human NCI-H226 cells after 48 hrs by SRB protein assay; settings: NCI-H226, 48 h
[20] = system: NCI-H322M; assay: Growth inhibition of human NCI-H322M cells after 48 hrs by SRB protein assay
[21] = system: NCI-H460; assay: Growth inhibition of human NCI-H460 cells after 48 hrs by SRB protein assay; settings: NCI-H460, 48 h
[22] = system: NCI-H522; assay: Growth inhibition of human NCI-H522 cells after 48 hrs by SRB protein assay; settings: NCI-H522, 48 h
[23] = system: HCC 2998; assay: Growth inhibition of human HCC2998 cells after 48 hrs by SRB protein assay; settings: HCC 2998, 48 h
[24] = system: HCT-116; assay: Growth inhibition of human HCT116 cells after 48 hrs by SRB protein assay; settings: HCT-116, 48 h
[25] = system: HCT-15; assay: Growth inhibition of human HCT15 cells after 48 hrs by SRB protein assay; settings: HCT-15, 48 h
[26] = system: HT-29; assay: Growth inhibition of human HT29 cells after 48 hrs by SRB protein assay; settings: HT-29, 48 h
[27] = system: U-251; assay: Growth inhibition of human U251 cells after 48 hrs by SRB protein assay; settings: U-251, 48 h
[28] = Growth inhibition of human MALME 3M cells after 48 hrs by SRB protein assay
[29] = system: M14; assay: Growth inhibition of human M14 cells after 48 hrs by SRB protein assay; settings: M14, 48 h
[30] = system: SK-MEL-28; assay: Growth inhibition of human SK-MEL-28 cells after 48 hrs by SRB protein assay; settings: SK-MEL-28, 48 h
[31] = system: SK-MEL-5; assay: Growth inhibition of human SK-MEL-5 cells after 48 hrs by SRB protein assay; settings: SK-MEL-5, 48 h
[32] = system: UACC-257; assay: Growth inhibition of human UACC257 cells after 48 hrs by SRB protein assay; settings: UACC-257, 48 h
[33] = system: UACC-62; assay: Growth inhibition of human UACC62 cells after 48 hrs by SRB protein assay; settings: UACC-62, 48 h
[34] = system: RXF 393; assay: Growth inhibition of human RXF393 cells after 48 hrs by SRB protein assay; settings: RXF 393, 48 h
[35] = system: TK-10; assay: Growth inhibition of human TK10 cells after 48 hrs by SRB protein assay; settings: TK-10, 48 h
[36] = system: UO-31; assay: Growth inhibition of human UO31 cells after 48 hrs by SRB protein assay; settings: UO-31, 48 h
[37] = system: MCF7; assay: Growth inhibition of human MCF7 cells after 48 hrs by SRB protein assay; settings: MCF7, 48 h
[38] = system: MDA-MB-435; assay: Growth inhibition of human MDA-MB-435 cells after 48 hrs by SRB protein assay; settings: MDA-MB-435, 48 h
[39] = system: T47D; assay: Growth inhibition of human T47D cells after 48 hrs by SRB protein assay
[40] = Growth inhibition of human MDA-MB-231/ATCC cells after 48 hrs by SRB protein assay; settings: MDA-MB-231, 48 h

SMILES: COc1ccc(NC(=O)CC2Sc3ncnn3C2=O)cc1 (configuration not stated)
- GI50 [1]: 18.6 µM
- TGI ([1]; read-out: Log TGI (converted)): 38 µM
- GI50 [2]: 18.2 µM
- TGI ([2]; read-out: Log TGI (converted)): 32.4 µM
- GI50 [3]: 22.4 µM
- TGI ([3]; read-out: Log TGI (converted)): 46.8 µM
- GI50 [4]: > 100 µM
- TGI ([4]; read-out: Log TGI (converted)): > 100 µM
- GI50 [5]: 21.4 µM
- TGI ([5]; read-out: Log TGI (converted)): 47.9 µM
- GI50 [6]: 18.6 µM
- TGI ([6]; read-out: Log TGI (converted)): 34.7 µM
- GI50 [7]: 20.4 µM
- TGI ([7]; read-out: Log TGI (converted)): 41.7 µM
- GI50 [8]: > 100 µM
- TGI ([8]; read-out: Log TGI (converted)): > 100 µM
- GI50 [9]: 25.7 µM
- TGI ([9]; read-out: Log TGI (converted)): 44.7 µM
- GI50 [10]: 25.1 µM
- TGI ([10]; read-out: Log TGI (converted)): 64.6 µM
- Activity [11]: 0%
- Activity [12]: 107%
- Activity [13]: 0%
- GI50 [14]: 31.6 µM
- TGI ([14]; read-out: Log TGI (converted)): > 100 µM
- GI50 [15]: 28.8 µM
- TGI ([15]; read-out: Log TGI (converted)): 70.8 µM
- GI50 [16]: 35.5 µM
- TGI ([16]; read-out: Log TGI (converted)): > 100 µM
- GI50 [17]: > 100 µM
- TGI ([17]; read-out: Log TGI (converted)): > 100 µM
- GI50 [18]: 21.9 µM
- TGI ([18]; read-out: Log TGI (converted)): 49 µM
- GI50 [19]: 22.9 µM
- TGI ([19]; read-out: Log TGI (converted)): 42.7 µM
- GI50 [20]: 97.7 µM
- TGI ([20]; read-out: Log TGI (converted)): > 100 µM
- GI50 [21]: > 100 µM
- TGI ([21]; read-out: Log TGI (converted)): > 100 µM
- GI50 [22]: 19.5 µM
- TGI ([22]; read-out: Log TGI (converted)): 43.7 µM
- GI50 [23]: > 100 µM
- TGI ([23]; read-out: Log TGI (converted)): > 100 µM
- GI50 [24]: 17 µM
- TGI ([24]; read-out: Log TGI (converted)): 30.9 µM
- GI50 [25]: 24.5 µM
- TGI ([25]; read-out: Log TGI (converted)): 52.5 µM
- GI50 [26]: 47.9 µM
- TGI ([26]; read-out: Log TGI (converted)): > 100 µM
- GI50 [27]: 22.4 µM
- TGI ([27]; read-out: Log TGI (converted)): 44.7 µM
- GI50 [28]: 17.4 µM
- TGI ([28]; read-out: Log TGI (converted)): 33.9 µM
- GI50 [29]: 18.2 µM
- TGI ([29]; read-out: Log TGI (converted)): 33.9 µM
- GI50 [30]: 26.9 µM
- TGI ([30]; read-out: Log TGI (converted)): > 57.5 µM
- GI50 [31]: 17.4 µM
- TGI ([31]; read-out: Log TGI (converted)): 35.5 µM
- GI50 [32]: 20 µM
- TGI ([32]; read-out: Log TGI (converted)): 36.3 µM
- GI50 [33]: > 100 µM
- TGI ([33]; read-out: Log TGI (converted)): > 100 µM
- GI50 [34]: 15.5 µM
- TGI ([34]; read-out: Log TGI (converted)): 41.7 µM
- GI50 [35]: 16.6 µM
- TGI ([35]; read-out: Log TGI (converted)): 30.9 µM
- GI50 [36]: 23.4 µM
- TGI ([36]; read-out: Log TGI (converted)): 53.7 µM
- GI50 [37]: 25.1 µM
- TGI ([37]; read-out: Log TGI (converted)): 64.6 µM
- GI50 [38]: 26.3 µM
- TGI ([38]; read-out: Log TGI (converted)): 70.8 µM
- GI50 [39]: 37.2 µM
- TGI ([39]; read-out: Log TGI (converted)): > 100 µM
- GI50 [40]: 21.4 µM
- TGI ([40]; read-out: Log TGI (converted)): 38.9 µM
